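Step 1: Grow cells in 96-well plates. Step 2: Expose to compound for 48 hours at 5 concentrations. Step 3: Interpolate endpoints linearly; if unreached, use highest concentration. GI50 is the concentration that inhibits growth by half. TGI is the concentration that stops growth completely.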

The test system of the first test is CAKI-1 renal. Briefly: growth of human tumour cells (NCI), 48 h.
As to `CC(C)C(=O)NS(=O)(=O)c1ccccc1`, the TGI was greater than 100 µM.

For the compound `CC(=O)[O][Ga]([Br])[O]C(C)=O`, the GI50 is greater than 100 µM and the TGI was greater than 100 µM.

The compound `COc1cc2c(OC)cc1CSCc1sc(C)c(c1Br)CSC2` returned a TGI greater than 100 µM.

With `CC(C)N(C(=O)C12C3C4C1(I)C1C2C3(I)C41C(=O)N(C(C)C)C(C)C)C(C)C` (stereo not given), the TGI was greater than 100 µM.

`COc1cc2c(c(OC)c1OC)-c1ncc3cc4c(cc3c1C2)OCO4`: the GI50 was 18 µM and the TGI is 71.7 µM.

Consider `CC1=C(C(=O)Nc2ccc(Cl)c(Cl)c2)C(c2cccc(Oc3ccccc3)c2)NC(=O)N1` (stereo not given), for which the GI50 is 7.64 µM and the TGI was found to be 20.4 µM.

Take `Cc1ccc(S(=O)(=O)c2ccc(N)cc2)cc1`: the TGI was greater than 100 µM.

As to `CCOP(=O)(OCC)OC1C=CC2CCC1C2` (stereo not given), the TGI was greater than 100 µM.

`COC(=O)[C@H]1C=C[C@@H](C)n2c(=O)c3cc4ccccc4cc3c(=O)n21` yielded a TGI greater than 100 µM.

On to `COc1cc(C=O)c(-c2cc(OC)c(OC)cc2C=O)cc1OC`, for which the TGI is greater than 100 µM.

For the compound `N#CC(C(=O)C(=O)Nc1ccc(Cl)cc1)c1ccccc1` (stereo not given), the TGI is greater than 100 µM.

Consider `COc1c[c]([Hg][O]C(C)=O)c(OC)c(NC(=O)CC(C)=O)[c]1[Hg][O]C(C)=O`, for which the GI50 is 2.26 µM and the TGI is 4.26 µM.

`COC(=O)/C=C1\CCC(C)O1` (stereo not given): the TGI was greater than 100 µM.

`O=C(/C=C/c1ccccc1Cl)NC1C=Nc2ccc([N+](=O)[O-])cc2NC1` (stereo not given) had a TGI greater than 100 µM.

For `CCCO/S(=N\S(=O)(=O)c1ccccc1)c1ccccc1[N+](=O)[O-]` (stereo not given), the TGI was greater than 100 µM.

`Cc1ccc(C)c(N=C2NC(=O)C(CC(=O)Nc3ccc(Cl)cc3Cl)S2)c1` (stereo not given): the TGI was greater than 100 µM.

Compound `Cc1cc(NS(=O)(=O)c2ccc(Nc3c4ccccc4nc4c(C(=O)N5CCN(CCO)CC5)ccc(Cl)c34)cc2)no1` returned a TGI greater than 100 µM.

Consider `COc1ccc(-c2ccc(-c3ccc(C(=N)N)s3)s2)cc1`, for which the GI50 is 0.345 µM and the TGI came to 1.19 µM.

For `COC(=O)/C=C/c1c(CC=C(C)C)ncn1C`, the TGI was greater than 100 µM.

As to `CC(C)C(=O)Nc1nc2c(ncn2C2OC(CO)C(O)C2O)c(=O)[nH]1` (stereo not given), the TGI was greater than 100 µM.

Take `O=S(=O)(c1ccccc1)C1CN2OC1(S(=O)(=O)c1ccccc1)CC2c1ccc(Br)cc1` (stereo not given): the TGI is greater than 100 µM.

Compound `O=Cc1ccc2c(c1-c1c(C=O)ccc3c1OCO3)OCO2` came in with a TGI greater than 100 µM.

For `O=C1NC(=NCCc2cccc(Cl)c2)S/C1=C\c1ccc2ncccc2c1`, the GI50 is greater than 25 µM and the TGI is greater than 25 µM.

`CC(=O)O[C@H]1CCC2[C@@H]3CCC4Nc5[nH]ncc5C[C@]4(C)C3CC[C@@]21C` (stereo not given in full): the TGI was greater than 100 µM.

The compound `Cc1cc(C)nc(NS(=O)(=O)c2ccc(NC(=O)c3cccc4c(Nc5ccc(S(N)(=O)=O)cc5)c5ccccc5nc34)cc2)n1` yielded a TGI greater than 100 µM.

`Cc1cc(S(=O)(=O)O)c(NC(=O)C(=O)Cc2cc(=O)oc3cc(O)ccc23)cc1Cl` registered a TGI greater than 100 µM.

A further test concerns HS 578T breast. The test is described as follows: growth of human tumour cells (NCI), 48 h.
As for `COc1cc2c(c(OC)c1OC)-c1ncc3cc4c(cc3c1C2)OCO4`, the GI50 was 14.7 µM and the TGI was determined as 49.6 µM.

Take `CC1=C(C(=O)Nc2ccc(Cl)c(Cl)c2)C(c2cccc(Oc3ccccc3)c2)NC(=O)N1` (stereo not given): the GI50 was 6.72 µM and the TGI was 22.3 µM.

With `COc1ccc(-c2ccc(-c3ccc(C(=N)N)s3)s2)cc1`, the GI50 is 0.295 µM and the TGI was determined as 1.41 µM.

Take `O=C1NC(=NCCc2cccc(Cl)c2)S/C1=C\c1ccc2ncccc2c1`: the GI50 is greater than 25 µM and the TGI was greater than 25 µM.

The test system of a further test is MDA-MB-231 breast. Briefly: growth of human tumour cells (NCI), 48 h.
In the case of `COc1cc2c(c(OC)c1OC)-c1ncc3cc4c(cc3c1C2)OCO4`, the GI50 was 13.8 µM and the TGI was found to be 88.8 µM.

Take `CC1=C(C(=O)Nc2ccc(Cl)c(Cl)c2)C(c2cccc(Oc3ccccc3)c2)NC(=O)N1` (stereo not given): the GI50 was 6.15 µM and the TGI was 16.3 µM.

As to `COc1ccc(-c2ccc(-c3ccc(C(=N)N)s3)s2)cc1`, the GI50 was 0.186 µM and the TGI was 0.371 µM.

`O=C1NC(=NCCc2cccc(Cl)c2)S/C1=C\c1ccc2ncccc2c1`: the GI50 is greater than 25 µM and the TGI is greater than 25 µM.

The test system of a further test is RPMI-8226 leukemia. The test is described as follows: growth of human tumour cells (NCI), 48 h.
As to `CC(C)C(=O)NS(=O)(=O)c1ccccc1`, the TGI was greater than 100 µM.

As for `COC1(OC)CC2C(=O)N(Cc3ccccc3)C1C=C2S(=O)(=O)c1ccccc1` (stereo not given), the TGI is 63.1 µM.

With `CC(=O)[O][Ga]([Br])[O]C(C)=O`, the GI50 was greater than 100 µM and the TGI was greater than 100 µM.

Compound `COc1cc2c(OC)cc1CSCc1sc(C)c(c1Br)CSC2` gave a TGI greater than 100 µM.

As to `CC(C)N(C(=O)C12C3C4C1(I)C1C2C3(I)C41C(=O)N(C(C)C)C(C)C)C(C)C` (stereo not given), the TGI is greater than 72.5 µM.

`Cc1cccc(C)c1NC(=O)C(=O)C(C(=O)c1ccccc1-c1ccccc1)C1OC(=O)c2ccccc21` (stereo not given) had a TGI of 60.1 µM.

Turning to `COc1cc2c(c(OC)c1OC)-c1ncc3cc4c(cc3c1C2)OCO4`, the GI50 is 17.8 µM and the TGI was greater than 100 µM.

As to `CC1=C(C(=O)Nc2ccc(Cl)c(Cl)c2)C(c2cccc(Oc3ccccc3)c2)NC(=O)N1` (stereo not given), the GI50 is 13.4 µM and the TGI was greater than 50 µM.

As for `CC1COC(C)(C)P(=O)(c2ccccc2)C1` (stereo not given), the TGI was greater than 100 µM.

`Cc1ccc(S(=O)(=O)c2ccc(N)cc2)cc1` had a TGI greater than 100 µM.

In turn, `CCOP(=O)(OCC)OC1C=CC2CCC1C2` (stereo not given) showed a TGI of 54.2 µM.

With `COC(=O)[C@H]1C=C[C@@H](C)n2c(=O)c3cc4ccccc4cc3c(=O)n21`, the TGI is greater than 100 µM.

`COc1cc(C=O)c(-c2cc(OC)c(OC)cc2C=O)cc1OC` yielded a TGI greater than 100 µM.

Compound `N#CC(C(=O)C(=O)Nc1ccc(Cl)cc1)c1ccccc1` (stereo not given) registered a TGI greater than 100 µM.

Source of the values: PubChem BioAssay (NCI).
